Key:
Type in all cases: physicochemical
[1] = Dissociation of chelates in aq. 1.0M HCl at 80° C. (acid decomplexation kinetic inertness) (Chart 18)
[2] = Relaxivities of Gd^III chelates, inversion recovery pulse sequence on relaxometer (0.5 T) (Chart 15); conditions: 40.0° C., 1.0 mM in aq. MOPS/NaOH buffer, pH 7.0
[3] = Dissociation of chelates in aq. 0.1M HCl at RT (acid decomplexation kinetic inertness) (Chart 20)
[4] = Dissociation of chelates in aq. 0.1M HCl at 80° C. (acid decomplexation kinetic inertness) (Chart 19)
[5] = Dissociation of chelates in aq. 6.0M HCl at 80° C. (acid decomplexation kinetic inertness) (Chart 17)
[6] = Formation of 1,5-cz-[Ln(Lig)] from 1,5-cz-Lig (metal dependent direct complexation) (Chart 8); conditions: pH 7.0
[7] = Formation of 1,5-cz-[Ln(Lig)] from 1,5-cz-Lig (metal dependent direct complexation), RT and 80° C. (Chart 9); conditions: pH 7.0; for conversion to 1,5-cz-[Ln(Lig)] from 1,5-cz-Lig, Bi^III: ~4% DMSO
[8] = Formation of 1,5-cz-[Ln(Lig)] from Lig and Ln^III ions (metal dependent click-zip), MES/NaOH buffer pH 5.2, analytical HPLC (Chart 3)

## O=C1C[N@@]2CC[N@]3CC[N@@](CC[N@](CC2)Cc2cccc(n2)-c2cnnn2Cc2cc(-c4ccccc4)cc(n2)C3)CC(=O)[O][Gd][O]1 [TD527]
[1]; 1 month
  fraction of intact chelate: 0%
[1]; 1 week
  fraction of intact chelate: 1%
[1]; 1 hour
  fraction of intact chelate: 98%
[1]; 1 day
  fraction of intact chelate: 58%
[2]
  relaxivity: 1.48 mM⁻¹ s⁻¹
[3]; 1 month
  fraction of intact chelate: 100%
[3]; 1 week
  fraction of intact chelate: 100%
[3]; 1 hour
  fraction of intact chelate: 100%
[3]; 1 day
  fraction of intact chelate: 100%
[4]; 1 month
  fraction of intact chelate: 82%
[4]; 1 week
  fraction of intact chelate: 95%
[4]; 1 hour
  fraction of intact chelate: 100%
[4]; 1 day
  fraction of intact chelate: 99%
[5]; 1 month
  fraction of intact chelate: 0%
[5]; 1 week
  fraction of intact chelate: 0%
[5]; 1 hour
  fraction of intact chelate: 2%
[5]; 1 day
  fraction of intact chelate: 0%

## O=C(O)CN1CC[N@]2CCN(CC(=O)O)CC[N@@](CC1)Cc1cccc(n1)-c1cnnn1Cc1cc(-c3ccccc3)cc(n1)C2 [TD650]
[6]; A: 1 hour at 80° C.
  conversion to 1,5-cz-[Ln(Lig)] from 1,5-cz-Lig, Ce^III: 0%
  conversion to 1,5-cz-[Ln(Lig)] from 1,5-cz-Lig, Dy^III: 0%
  conversion to 1,5-cz-[Ln(Lig)] from 1,5-cz-Lig, Er^III: 0%
  conversion to 1,5-cz-[Ln(Lig)] from 1,5-cz-Lig, Eu^III: 0%
  conversion to 1,5-cz-[Ln(Lig)] from 1,5-cz-Lig, Gd^III: 0%
  conversion to 1,5-cz-[Ln(Lig)] from 1,5-cz-Lig, Ho^III: 0%
  conversion to 1,5-cz-[Ln(Lig)] from 1,5-cz-Lig, La^III: 0%
  conversion to 1,5-cz-[Ln(Lig)] from 1,5-cz-Lig, Lu^III: 0%
  conversion to 1,5-cz-[Ln(Lig)] from 1,5-cz-Lig, Nd^III: 0%
  conversion to 1,5-cz-[Ln(Lig)] from 1,5-cz-Lig, Pr^III: 0%
  conversion to 1,5-cz-[Ln(Lig)] from 1,5-cz-Lig, Sm^III: 0%
  conversion to 1,5-cz-[Ln(Lig)] from 1,5-cz-Lig, Tb^III: 0%
  conversion to 1,5-cz-[Ln(Lig)] from 1,5-cz-Lig, Tm^III: 0%
  conversion to 1,5-cz-[Ln(Lig)] from 1,5-cz-Lig, Yb^III: 0%
[6]; B: 1 week at 80° C.
  conversion to 1,5-cz-[Ln(Lig)] from 1,5-cz-Lig, Ce^III: 0%
  conversion to 1,5-cz-[Ln(Lig)] from 1,5-cz-Lig, Dy^III: 0%
  conversion to 1,5-cz-[Ln(Lig)] from 1,5-cz-Lig, Er^III: 0%
  conversion to 1,5-cz-[Ln(Lig)] from 1,5-cz-Lig, Eu^III: 0%
  conversion to 1,5-cz-[Ln(Lig)] from 1,5-cz-Lig, Gd^III: 0%
  conversion to 1,5-cz-[Ln(Lig)] from 1,5-cz-Lig, Ho^III: 0%
  conversion to 1,5-cz-[Ln(Lig)] from 1,5-cz-Lig, La^III: 0%
  conversion to 1,5-cz-[Ln(Lig)] from 1,5-cz-Lig, Lu^III: 0%
  conversion to 1,5-cz-[Ln(Lig)] from 1,5-cz-Lig, Nd^III: 0%
  conversion to 1,5-cz-[Ln(Lig)] from 1,5-cz-Lig, Pr^III: 0%
  conversion to 1,5-cz-[Ln(Lig)] from 1,5-cz-Lig, Sm^III: 0%
  conversion to 1,5-cz-[Ln(Lig)] from 1,5-cz-Lig, Tb^III: 0%
  conversion to 1,5-cz-[Ln(Lig)] from 1,5-cz-Lig, Tm^III: 0%
  conversion to 1,5-cz-[Ln(Lig)] from 1,5-cz-Lig, Yb^III: 0%
[6]; C: ~6 months at 80° C.
  conversion to 1,5-cz-[Ln(Lig)] from 1,5-cz-Lig, Gd^III: 0%
  conversion to 1,5-cz-[Ln(Lig)] from 1,5-cz-Lig, Lu^III: 0%
[7]; A: 1 min at RT
  conversion to 1,5-cz-[Ln(Lig)] from 1,5-cz-Lig, Cu^II: 43%
  conversion to 1,5-cz-[Ln(Lig)] from 1,5-cz-Lig, Pb^II: 98%
[7]; B: 1 hour at RT
  conversion to 1,5-cz-[Ln(Lig)] from 1,5-cz-Lig, Ca^II: 0%
  conversion to 1,5-cz-[Ln(Lig)] from 1,5-cz-Lig, Cd^II: 58%
  conversion to 1,5-cz-[Ln(Lig)] from 1,5-cz-Lig, Cu^II: 47%
  conversion to 1,5-cz-[Ln(Lig)] from 1,5-cz-Lig, Ni^II: 0%
  conversion to 1,5-cz-[Ln(Lig)] from 1,5-cz-Lig, Pb^II: 99%
  conversion to 1,5-cz-[Ln(Lig)] from 1,5-cz-Lig, Zn^II: 59%
  conversion to 1,5-cz-[Ln(Lig)] from 1,5-cz-Lig, Bi^III: 2%
[7]; C: 1 hour at 80° C.
  conversion to 1,5-cz-[Ln(Lig)] from 1,5-cz-Lig, Ca^II: 23%
  conversion to 1,5-cz-[Ln(Lig)] from 1,5-cz-Lig, Cd^II: 98%
  conversion to 1,5-cz-[Ln(Lig)] from 1,5-cz-Lig, Cu^II: 49%
  conversion to 1,5-cz-[Ln(Lig)] from 1,5-cz-Lig, Ni^II: 9%
  conversion to 1,5-cz-[Ln(Lig)] from 1,5-cz-Lig, Pb^II: 98%
  conversion to 1,5-cz-[Ln(Lig)] from 1,5-cz-Lig, Zn^II: 91%
  conversion to 1,5-cz-[Ln(Lig)] from 1,5-cz-Lig, Bi^III: 96%
[7]; D: 1 week at 80° C.
  conversion to 1,5-cz-[Ln(Lig)] from 1,5-cz-Lig, Ba^II: 0%
  conversion to 1,5-cz-[Ln(Lig)] from 1,5-cz-Lig, Ca^II: 96%
  conversion to 1,5-cz-[Ln(Lig)] from 1,5-cz-Lig, Cd^II: 99%
  conversion to 1,5-cz-[Ln(Lig)] from 1,5-cz-Lig, Cu^II: 78%
  conversion to 1,5-cz-[Ln(Lig)] from 1,5-cz-Lig, Ga^II: 0%
  conversion to 1,5-cz-[Ln(Lig)] from 1,5-cz-Lig, In^III: 0%
  conversion to 1,5-cz-[Ln(Lig)] from 1,5-cz-Lig, Ni^II: 11%
  conversion to 1,5-cz-[Ln(Lig)] from 1,5-cz-Lig, Pb^II: 98%
  conversion to 1,5-cz-[Ln(Lig)] from 1,5-cz-Lig, Sc^III: 0%
  conversion to 1,5-cz-[Ln(Lig)] from 1,5-cz-Lig, Sr^II: 0%
  conversion to 1,5-cz-[Ln(Lig)] from 1,5-cz-Lig, Y^III: 0%
  conversion to 1,5-cz-[Ln(Lig)] from 1,5-cz-Lig, Zn^II: 99%
  conversion to 1,5-cz-[Ln(Lig)] from 1,5-cz-Lig, Bi^III: 90%

## [N-]=[N+]=NCc1cc(-c2ccc(C(=O)O)cc2)cc(CN2CCN(CC(=O)O)CCN(Cc3cccc(C#CCN)n3)CCN(CC(=O)O)CC2)n1 [TD750]
[8]; after 1 hour at 80° C. (A)
  conversion to 1,5-cz-[Ln(Lig)], Gd^III: 3%
  conversion to 1,5-cz-[Ln(Lig)], Lu^III: 19%
[8]; after 18 hours at 80° C. (B)
  conversion to 1,5-cz-[Ln(Lig)], Gd^III: 9%
  conversion to 1,5-cz-[Ln(Lig)], Lu^III: 71%

## C#Cc1cccc(CN2CC[N@]3CCN(Cc4cc(-c5ccccc5)cc(CN=[N+]=[N-])n4)CC[N@@](CC2)CC(=O)[O][Gd][O]C(=O)C3)n1 [TD451]
[2]
  relaxivity: 2.39 mM⁻¹ s⁻¹
